# Literature values as cited in PMC4726456 (Cell, 2014).
# Assays:
# cellular microtubules = settings: ref Piperno et al., 1987; Takemura et al., 1992
# tubulin = settings: ref Mulder et al., 2009
Molecule,Effect on microtubule acetylation levels in cells (cellular microtubules),Induction of tubulin rings (tubulin)
CC(=O)O[C@H]1C(=O)[C@@]2(C)[C@H]([C@H](OC(=O)c3ccccc3)[C@]3(O)C[C@H](OC(=O)[C@H](O)[C@@H](NC(=O)c4ccccc4)c4ccccc4)C(C)=C1C3(C)C)[C@]1(OC(C)=O)CO[C@@H]1C[C@@H]2O [taxol],increases acetylation levels,
Dolastatin-10,,induces tubulin rings by curving individual protofilaments
